From patent US11104674B2 (Hoffmann-La Roche Inc., priority 2016, dated 2021)

Tested on: HBsAg
Test: HBsAg assay (chemiluminescence immunoassay of secreted HBsAg)
Type: cell-based, HBV
Details: Hepatitis B virus, HepG2.2.15, HBsAg secretion, HepG2.2.15 cells, CLIA of culture supernatant
Procedure: HepG2.2.15 cells (Acs et al. Proc Natl Acad Sci USA, 84, (1987), 4641-4), a constitutively HBV-expressing cell line were cultured in DMEM+Glutamax-I medium (Invitrogen, Carlsbad, Calif., USA), supplemented with 10% fetal bovine serum (Invitrogen) and G418 (Invitrogen) at a final concentration of 200 mg/L and maintained in 5% CO2 at 37° C.
HepG2.2.15 cells were seeded in duplicate into white, 96-well plates at 1.5×10^4 cells/well. The cells were treated with a three-fold serial dilution series of the compounds in DMSO. The final DMSO concentration in all wells was 1% and DMSO was used as no drug control.
The HBsAg chemiluminescence immunoassay (CLIA) kit (Autobio Diagnostics Co., Zhengzhou, China, Catalog number: CL0310-2) was used to measure the levels of secreted HBV antigens semi-quantitatively. For the detection 50 μL/well culture supernatant was used and HBsAg was quantified using HBsAg chemiluminescence immunoassay (CLIA) kit (Autobio Diagnostics Co., Zhengzhou, China, Catalog number: CL0310-2), 50 μL of the supernatant was transferred to the CLIA assay plate and 50 μL of enzyme conjugate reagent was added into each well. The plates were sealed and gently agitated for 1 hour at room temperature. The supernatant-enzyme-mixture was discarded and wells were washed 6 times with 300 μL of PBS.
The residual liquid was removed by plating the CLIA plate right side down on absorbent tissue paper. 25 μL of substrates A and B were added to each well. Luminance was measured using a luminometer (Mithras LB 940 Multimode Microplate Reader) after 10 minutes incubation. Dose-response curves were generated and the IC50 value was extrapolated by using the E-WorkBook Suite (ID Business Solutions Ltd., Guildford, UK). The IC50 was defined as the compound concentration (or conditioned media log dilution) at which HBsAg secretion was reduced by 50% compared to the no drug control.
The compounds according to formula I were tested for their capacity to inhibit HBsAg as described herein.

SMILES | IC50
CC1c2cnc(-c3ncccn3)nc2CCN1c1cc(F)cc(N2CC(C(N)=O)C2)n1 (stereo not shown) [Example 81, 1-[4-fluoro-6-(5-methyl-2-pyrimidin-2-yl-7,8-dihydro-5H-pyrido[4,3-d]pyrimidin-6-yl)-2-pyridyl]azetidine-3-carboxamide] | 206 nM
COCC1CCCN1c1cc(F)nc(N2CCc3nc(-c4ncccn4)ncc3C2C)c1 (stereo not shown) [Example 34, 6-[6-fluoro-4-[2-(methoxymethyl)pyrrolidin-1-yl]-2-pyridyl]-5-methyl-2-pyrimidin-2-yl-7,8-dihydro-5H-pyrido[4,3-d]pyrimidine] | 54 nM
CC(=O)N1CCN(c2cc(F)nc(N3CCc4nc(-c5ccccn5)ncc4C3C)c2)CC1 (stereo not shown) [Example 69, 1-[4-[2-fluoro-6-[5-methyl-2-(2-pyridyl)-7,8-dihydro-5H-pyrido[4,3-d]pyrimidin-6-yl]-4-pyridyl]piperazin-1-yl]ethanone] | 14 nM
CC1c2cnc(-c3ncccn3)nc2CCN1c1cc(F)cc(N2CCN(CCC(N)=O)CC2)n1 (stereo not shown) [Example 103, 3-[4-[4-fluoro-6-(5-methyl-2-pyrimidin-2-yl-7,8-dihydro-5H-pyrido[4,3-d]pyrimidin-6-yl)-2-pyridyl]piperazin-1-yl]propanamide] | 1350 nM
CC1c2cnc(-c3ncccn3)nc2CCN1c1cc(F)cc(N2CCN(CC(=O)O)CC2)n1 (stereo not shown) [Example 95, 2-[4-[4-fluoro-6-(5-methyl-2-pyrimidin-2-yl-7,8-dihydro-5H-pyrido[4,3-d]pyrimidin-6-yl)-2-pyridyl]piperazin-1-yl]acetic acid] | 3780 nM
CC1c2cnc(-c3ncccn3)nc2CCN1c1cc(N(CCCCC(N)=O)CC2CC2)cc(F)n1 (stereo not shown) [Example 143, 5-[Cyclopropylmethyl-[2-fluoro-6-(5-methyl-2-pyrimidin-2-yl-7,8-dihydro-5H-pyrido[4,3-d]pyrimidin-6-yl)-4-pyridyl]amino]pentanamide] | 176 nM
CC1c2cnc(-c3ncccn3)nc2CCN1c1cc(F)cc(N2CCCC2CO)n1 (stereo not shown) [Example 31, [1-[4-fluoro-6-(5-methyl-2-pyrimidin-2-yl-7,8-dihydro-5H-pyrido[4,3-d]pyrimidin-6-yl)-2-pyridyl]pyrrolidin-2-yl]methanol] | 14 nM
CC1c2cnc(-c3ncccn3)nc2CCN1c1cc(F)nc(N2CC(F)(F)C2)c1 (stereo not shown) [Example 149, 6-[2-(3,3-Difluoroazetidin-1-yl)-6-fluoro-4-pyridyl]-5-methyl-2-pyrimidin-2-yl-7,8-dihydro-5H-pyrido[4,3-d]pyrimidine] | 20 nM
CC1c2cnc(-c3ncccn3)nc2CCN1c1cc(N2CCC(NS(C)(=O)=O)CC2)cc(F)n1 (stereo not shown) [Example 88, N-[1-[2-fluoro-6-(5-methyl-2-pyrimidin-2-yl-7,8-dihydro-5H-pyrido[4,3-d]pyrimidin-6-yl)-4-pyridyl]-4-piperidyl]methanesulfonamide] | 18 nM
CC1c2cnc(-c3ccccn3)nc2CCN1c1cc(N2CCC(C(=O)NS(C)(=O)=O)C2)cc(F)n1 (stereo not shown) [Example 86, 1-[2-fluoro-6-[5-methyl-2-(2-pyridyl)-7,8-dihydro-5H-pyrido[4,3-d]pyrimidin-6-yl]-4-pyridyl]-N-methylsulfonyl-pyrrolidine-3-carboxamide] | 1240 nM
CC(=O)N1CCN(c2cc(F)cc(N3CCc4nc(-c5ccccn5)ncc4C3C)n2)CC1 (stereo not shown) [Example 70, 1-[4-[4-fluoro-6-[5-methyl-2-(2-pyridyl)-7,8-dihydro-5H-pyrido[4,3-d]pyrimidin-6-yl]-2-pyridyl]piperazin-1-yl]ethanone] | 16 nM
CC1c2cnc(-c3ncccn3)nc2CCN1c1cc(F)cc(N2CCC(C(=O)O)C2)n1 (stereo not shown) [Example 39, 1-[4-fluoro-6-(5-methyl-2-pyrimidin-2-yl-7,8-dihydro-5H-pyrido[4,3-d]pyrimidin-6-yl)-2-pyridyl]pyrrolidine-3-carboxylic acid] | 108 nM
CC1c2cnc(-c3ncccn3)nc2CCN1c1cc(F)cc(N2CCC(NS(C)(=O)=O)CC2)n1 (stereo not shown) [Example 89, N-[1-[4-fluoro-6-(5-methyl-2-pyrimidin-2-yl-7,8-dihydro-5H-pyrido[4,3-d]pyrimidin-6-yl)-2-pyridyl]-4-piperidyl]methanesulfonamide] | 12 nM
CC1c2cnc(-c3ncccn3)nc2CCN1c1cc(N2CC(C)(C)OC2=O)cc(F)n1 (stereo not shown) [Example 114, 3-[2-Fluoro-6-(5-methyl-2-pyrimidin-2-yl-7,8-dihydro-5H-pyrido[4,3-d]pyrimidin-6-yl)-4-pyridyl]-5,5-dimethyl-oxazolidin-2-one] | 8 nM
CC1c2cnc(-c3ncccn3)nc2CCN1c1cc(F)cc(NC2CNC2)n1 (stereo not shown) [Example 120, N-(azetidin-3-yl)-4-fluoro-6-(5-methyl-2-pyrimidin-2-yl-7,8-dihydro-5H-pyrido[4,3-d]pyrimidin-6-yl)pyridin-2-amine] | 33300 nM
CC1c2cnc(-c3ncccn3)nc2CCN1c1cc(N2CCOC(CO)C2)cc(F)n1 (stereo not shown) [Example 24, [4-[2-fluoro-6-(5-methyl-2-pyrimidin-2-yl-7,8-dihydro-5H-pyrido[4,3-d]pyrimidin-6-yl)-4-pyridyl]morpholin-2-yl]methanol] | 38 nM
CC1c2cnc(-c3ccccn3)nc2CCN1c1cc(F)cc(NCC(F)F)n1 (stereo not shown) [Example 80, N-(2,2-difluoroethyl)-4-fluoro-6-[5-methyl-2-(2-pyridyl)-7,8-dihydro-5H-pyrido[4,3-d]pyrimidin-6-yl]pyridin-2-amine] | 124 nM
CCS(=O)(=O)N1CCN(c2cc(F)cc(N3CCc4nc(-c5ncccn5)ncc4C3C)n2)CC1 (stereo not shown) [Example 91, 6-[6-(4-ethylsulfonylpiperazin-1-yl)-4-fluoro-2-pyridyl]-5-methyl-2-pyrimidin-2-yl-7,8-dihydro-5H-pyrido[4,3-d]pyrimidine] | 12 nM
CC1CCN(c2cc(F)nc(N3CCc4nc(-c5ncccn5)ncc4C3C)c2)C1 (stereo not shown) [Example 18, 6-[6-fluoro-4-(3-methylpyrrolidin-1-yl)-2-pyridyl]-5-methyl-2-pyrimidin-2-yl-7,8-dihydro-5H-pyrido[4,3-d]pyrimidine] | 3 nM
CC1c2cnc(-c3ncccn3)nc2CCN1c1cc(N2CCOC(C(=O)O)C2)cc(F)n1 (stereo not shown) [Example 26, 4-[2-fluoro-6-(5-methyl-2-pyrimidin-2-yl-7,8-dihydro-5H-pyrido[4,3-d]pyrimidin-6-yl)-4-pyridyl]morpholine-2-carboxylic acid] | 2320 nM
CC1c2cnc(-c3ncccn3)nc2CCN1c1cc(N2CCN(S(C)(=O)=O)CC2=O)cc(F)n1 (stereo not shown) [Example 128, 1-[2-Fluoro-6-(5-methyl-2-pyrimidin-2-yl-7,8-dihydro-5H-pyrido[4,3-d]pyrimidin-6-yl)-4-pyridyl]-4-methylsulfonyl-piperazin-2-one] | 417 nM
CC1c2cnc(-c3ncccn3)nc2CCN1c1cc(N2CC(F)(F)C2)cc(F)n1 (stereo not shown) [Example 126, 6-[4-(3,3-difluoroazetidin-1-yl)-6-fluoro-2-pyridyl]-5-methyl-2-pyrimidin-2-yl-7,8-dihydro-5H-pyrido[4,3-d]pyrimidine] | 12 nM
CC1c2cnc(-c3ncccn3)nc2CCN1c1cc(N2CC(CO)CC2=O)cc(F)n1 (stereo not shown) [Example 153, 1-[2-Fluoro-6-(5-methyl-2-pyrimidin-2-yl-7,8-dihydro-5H-pyrido[4,3-d]pyrimidin-6-yl)-4-pyridyl]-4-(hydroxymethyl)pyrrolidin-2-one] | 32 nM
CC1c2cnc(-c3ncccn3)nc2CCN1c1cc(F)cc(N2CCC(O)C2)n1 (stereo not shown) [Example 37, 1-[4-fluoro-6-(5-methyl-2-pyrimidin-2-yl-7,8-dihydro-5H-pyrido[4,3-d]pyrimidin-6-yl)-2-pyridyl]pyrrolidin-3-ol] | 11 nM
CC1c2cnc(-c3ncccn3)nc2CCN1c1cc(N2CCOC(C(N)=O)C2)cc(F)n1 (stereo not shown) [Example 46, 4-[2-Fluoro-6-(5-methyl-2-pyrimidin-2-yl-7,8-dihydro-5H-pyrido[4,3-d]pyrimidin-6-yl)-4-pyridyl]morpholine-2-carboxamide] | 36 nM
CC1c2cnc(-c3ncccn3)nc2CCN1c1cc(N2CC(C#N)C2)cc(F)n1 (stereo not shown) [Example 144, 1-[2-Fluoro-6-(5-methyl-2-pyrimidin-2-yl-7,8-dihydro-5H-pyrido[4,3-d]pyrimidin-6-yl)-4-pyridyl]azetidine-3-carbonitrile] | 28 nM
CC1c2cnc(-c3ncccn3)nc2CCN1c1cc(F)cc(N2CC(NS(C)(=O)=O)C2)n1 (stereo not shown) [Example 118, N-[1-[4-fluoro-6-(5-methyl-2-pyrimidin-2-yl-7,8-dihydro-5H-pyrido[4,3-d]pyrimidin-6-yl)-2-pyridyl]azetidin-3-yl]methanesulfonamide] | 94 nM
CC1c2cnc(-c3ncccn3)nc2CCN1c1cc(F)cc(N2CCC(C(N)=O)C2)n1 (stereo not shown) [Example 45, 1-[4-fluoro-6-(5-methyl-2-pyrimidin-2-yl-7,8-dihydro-5H-pyrido[4,3-d]pyrimidin-6-yl)-2-pyridyl]pyrrolidine-3-carboxamide] | 18 nM
